{"source": "patent US20210254056A1", "about": "“IDENTIFICATION AND TARGETED MODULATION OF GENE SIGNALING NETWORKS” (CAMP4 THERAPEUTICS CORPORATION, priority 2017, published 2021)", "test_system": "hepatocytes", "test": "RNA-seq of hepatocytes treated with Phase III failure compounds", "procedure": "RNA-seq was performed to determine the effects of the compounds on hepatocytes.\nSignificance was determined by the criteria of FPKM≥0.5, a log 2(fold-change)≥1, and a […]."}
{"smiles": "CCCCCCCCCCCCCCCCOCCCOP(=O)(O)CO[C@H](CO)Cn1ccc(N)nc1=O", "note": "[CMX001 (Brincidofovir), Brincidofovir]", "values": [{"measurement": "significant changes in gene expression", "setting": "RNA-seq of Table 36, FPKM≥0.5, log 2(fold-change)≥1, q-value≤0.05", "value": "not observed to cause any significant changes in gene expression"}, {"measurement": "significant modulation of expression of any of the genes analyzed", "setting": "RNA-seq, p≤0.05, hepatocytes", "value": "not observed to significantly modulate expression"}, {"measurement": "effect on disease gene expression", "setting": "RNA-seq, hepatocytes", "value": "no effect on any disease gene"}]}
{"smiles": "C=CC(=O)Nc1cccc(Nc2nc(Nc3ccc(N4CCN(C(C)=O)CC4)cc3OC)ncc2C(F)(F)F)c1", "note": "[CO-1686 (Rociletinib), Rociletinib]", "values": [{"measurement": "Number (#) of genes having significantly changed expression", "setting": "RNA-seq, Phase III failure compounds, hepatocytes, significance: FPKM≥0.5, log 2(fold-change)≥1, q-value≥0.05 (so in the source)", "value": 391}, {"measurement": "B2M expression, RNA-seq result", "setting": "gene B2M, hepatocytes", "value": "−0.08"}, {"measurement": "B9D2 expression, RNA-seq result", "setting": "gene B9D2, hepatocytes", "value": "−0.29"}, {"measurement": "BAAT expression, RNA-seq result", "setting": "gene BAAT, hepatocytes", "value": 0.22}, {"measurement": "BBOX1 expression, RNA-seq result", "setting": "gene BBOX1, hepatocytes", "value": "−0.45"}, {"measurement": "BBS10 expression, RNA-seq result", "setting": "gene BBS10, hepatocytes", "value": "−0.28"}, {"measurement": "BCHE expression, RNA-seq result", "setting": "gene BCHE, hepatocytes", "value": "−0.79"}, {"measurement": "BCKDHB expression, RNA-seq result", "setting": "gene BCKDHB, hepatocytes", "value": "−0.38"}, {"measurement": "BCKDK expression, RNA-seq result", "setting": "gene BCKDK, hepatocytes", "value": "−0.45"}, {"measurement": "BCO1 expression, RNA-seq result", "setting": "gene BCO1, hepatocytes", "value": "−0.53"}, {"measurement": "BCR expression, RNA-seq result", "setting": "gene BCR, hepatocytes", "value": "−0.26"}, {"measurement": "BLNK expression, RNA-seq result", "setting": "gene BLNK, hepatocytes", "value": 0.75}, {"measurement": "BLOC1S3 expression, RNA-seq result", "setting": "gene BLOC1S3, hepatocytes", "value": 0.76}, {"measurement": "BMPR1A expression, RNA-seq result", "setting": "gene BMPR1A, hepatocytes", "value": 0.07}, {"measurement": "BRAF expression, RNA-seq result", "setting": "gene BRAF, hepatocytes", "value": 0.32}, {"measurement": "BSCL2 expression, RNA-seq result", "setting": "gene BSCL2, hepatocytes", "value": "−0.58"}, {"measurement": "BTD expression, RNA-seq result", "setting": "gene BTD, hepatocytes", "value": 0.25}, {"measurement": "C4A expression, RNA-seq result", "setting": "gene C4A, hepatocytes", "value": 0.16}, {"measurement": "C9 expression, RNA-seq result", "setting": "gene C9, hepatocytes", "value": "−0.21"}, {"measurement": "C10orf10 expression, RNA-seq result", "setting": "gene C10orf10, hepatocytes", "value": 0.81}, {"measurement": "C10orf11 expression, RNA-seq result", "setting": "gene C10orf11, hepatocytes", "value": 0.1}, {"measurement": "C15orf41 expression, RNA-seq result", "setting": "gene C15orf41, hepatocytes", "value": 0.03}, {"measurement": "CA2 expression, RNA-seq result", "setting": "gene CA2, hepatocytes", "value": 0.48}, {"measurement": "CA5A expression, RNA-seq result", "setting": "gene CA5A, hepatocytes", "value": "−0.02"}, {"measurement": "CA12 expression, RNA-seq result", "setting": "gene CA12, hepatocytes", "value": 0.59}, {"measurement": "CAV1 expression, RNA-seq result", "setting": "gene CAV1, hepatocytes", "value": "−0.47"}, {"measurement": "CCND1 expression, RNA-seq result", "setting": "gene CCND1, hepatocytes", "value": "−2.24"}, {"measurement": "CD46 expression, RNA-seq result", "setting": "gene CD46, hepatocytes", "value": "−0.02"}, {"measurement": "CD81 expression, RNA-seq result", "setting": "gene CD81, hepatocytes", "value": 0.02}, {"measurement": "CD320 expression, RNA-seq result", "setting": "gene CD320, hepatocytes", "value": "−0.58"}, {"measurement": "CDAN1 expression, RNA-seq result", "setting": "gene CDAN1, hepatocytes", "value": 0.02}, {"measurement": "CDH1 expression, RNA-seq result", "setting": "gene CDH1, hepatocytes", "value": "−0.25"}, {"measurement": "CEP19 expression, RNA-seq result", "setting": "gene CEP19, hepatocytes", "value": "−0.43"}, {"measurement": "CEP83 expression, RNA-seq result", "setting": "gene CEP83, hepatocytes", "value": "−0.13"}, {"measurement": "CEP164 expression, RNA-seq result", "setting": "gene CEP164, hepatocytes", "value": "−0.32"}, {"measurement": "CEP290 expression, RNA-seq result", "setting": "gene CEP290, hepatocytes", "value": "−0.17"}, {"measurement": "CFB expression, RNA-seq result", "setting": "gene CFB, hepatocytes", "value": 0.17}, {"measurement": "CFHR2 expression, RNA-seq result", "setting": "gene CFHR2, hepatocytes", "value": "−0.16"}, {"measurement": "CHRM3 expression, RNA-seq result", "setting": "gene CHRM3, hepatocytes", "value": "−0.14"}, {"measurement": "CIDEC expression, RNA-seq result", "setting": "gene CIDEC, hepatocytes", "value": 0.24}, {"measurement": "CLDN1 expression, RNA-seq result", "setting": "gene CLDN1, hepatocytes", "value": "−0.71"}, {"measurement": "COG1 expression, RNA-seq result", "setting": "gene COG1, hepatocytes", "value": "−0.28"}]}
